Article PMC10821124, “Dimeric 3,5-Bis(benzylidene)-4-piperidones: Tumor-Selective Cytotoxicity and Structure-Activity Relationships” (Medicines, 2024)
“Also recorded” adds a separate entry of the source. Read-outs that look alike come from different tables or passages of the source.

Tests used:
[1] = test system: human promyelocytic leukemia HL-60 cells; test: Cytotoxicity, MTT method, HL-60 cells; format: cell-based; settings: for CC50: Homo sapiens, read-out: CC50 HL-60; for SI (selectivity index) HL-60: average CC50 non-malignant cells / CC50 HL-60
Experimental: (§1) Human promyelocytic leukemia [HL-60 (RCB3683)] (purchased from Riken Cell Bank, Tsukuba, Japan) was cultured at 37 °C in RPMI1640 medium (Fujifilm Wako Pure Chemical Co., Osaka, Japan) supplemented with 10% heat (56 °C, 30 min) inactivated FBS (Sigma-Aldrich Inc. St. Louis, MO, USA), 100 U/mL penicillin G, and 100 µg/mL streptomycin sulfate in a humidified 5% CO2 incubator (MCO-170 AICUVD-P, Panasonic Healthcare Co., Ltd., Gunma, Japan). Human oral squamous cell carcinoma (OSCC) cell lines derived from tongue [HSC-2 (RCB1945), HSC-3 (RCB1975), HSC-4 (RCB1902)] (Riken Cell Bank), and human normal oral cells (gingival fibroblasts, HGF; pulp cell, HPC; periodontal ligament fibroblast, HPLF), established from the first premolar extracted tooth in the lower jaw and periodontal tissues of a child, according to the guidelines of Meikai University Ethic Committee (No. A0808), were cultured in DMEM medium (Fujifilm Wako Pure Chemical Co.) supplemented with 10% FBS and antibiotics. The compounds in Series 2–4 were evaluated against HL-60, HSC-2, HSC-3, HSC-4, HGF, HPC, and HPLF cells based on a literature procedure, as described previously. In brief, near confluent cells were incubated in triplicate for 48 h at 37 °C with different concentrations ([…], 6.3, 12.5, 25, 50, 100 µM) of the compounds; then, viable cell numbers were measured using the MTT method. From the dose–response curve, a 50% cytotoxic concentration (CC50) was determined. All samples were dissolved in dimethylsulfoxide (DMSO). The toxicity of DMSO alone was calculated and subtracted. The CC50 values were determined from dose–response curves.

[2] = test system: human oral squamous cell carcinoma HSC-2 cells; test: Cytotoxicity, MTT method, HSC-2 cells; format: cell-based; settings: for CC50: Homo sapiens, read-out: CC50 HSC-2; for SI (selectivity index) HSC-2: average CC50 non-malignant cells / CC50 HSC-2
Experimental: as §1

[3] = test system: human oral squamous cell carcinoma HSC-3 cells; test: Cytotoxicity, MTT method, HSC-3 cells; format: cell-based; settings: for CC50: Homo sapiens, read-out: CC50 HSC-3; for SI (selectivity index) HSC-3: average CC50 non-malignant cells / CC50 HSC-3
Experimental: as §1

[4] = test system: human oral squamous cell carcinoma HSC-4 cells; test: Cytotoxicity, MTT method, HSC-4 cells; format: cell-based; settings: for CC50: Homo sapiens, read-out: CC50 HSC-4; for SI (selectivity index) HSC-4: average CC50 non-malignant cells / CC50 HSC-4
Experimental: as §1

[5] = Cytotoxicity, MTT method, HGF non-malignant cells; format: cell-based, human; settings: human, gingival fibroblasts (HGF), non-malignant, mean ± SD
Experimental: as §1

[6] = Cytotoxicity, MTT method, HPC non-malignant cells; format: cell-based, human; settings: human, pulp cells (HPC), non-malignant, mean ± SD
Experimental: as §1

[7] = Cytotoxicity, MTT method, HPLF non-malignant cells; format: cell-based, human; settings: human, periodontal ligament fibroblasts (HPLF), non-malignant, mean ± SD
Experimental: as §1

[8] = test system: human tumour cell lines HL-60, HSC-2, HSC-3, HSC-4; test: Cytotoxicity, average over the four human tumour cell lines; format: cell-based; settings: for CC50: Homo sapiens, read-out: AVE. CC50, human tumour cell lines; for AVE SI: average of the four SI values
Experimental: as §1

[9] = Cytotoxicity, average over the three human normal cells; format: cell-based; settings: human, average of HGF, HPC, HPLF; read-out: AVE CC50, human normal cells
Experimental: as §1

caspases-3 and -7 = test: Caspase-Glo 3/7 assay in HSC-2 cells; format: cell-based, human; settings: 0.5 µM, 24 h
Experimental: Both 3b (0.5 µM) and 3c (0.5 µM) were examined for their ability to activate caspases-3 and -7 in HSC cells. This determination was accomplished using the Caspase-Glo 3/7 assay (Promega Corporation, Madison, WI, USA). In brief, this assay uses a tetrapeptide sequence DEVD, which is optimized for caspase and luciferase activities. The cell lysate was incubated with the Caspase-Glo reagent (buffer and substrate) for 1 h and the luminescence was measured. The resultant luminescent signal produced by luciferase was confirmed to be proportional to the amount of caspase-3 and -7 activity.

PARP1 = PARP1 cleavage, western blot in HSC-2 cells; format: cell-based, human; settings: 0.5 µM, 24 h
Experimental: (§2) Antibodies against cleaved PARP1, bim, bax, puma, and bak were obtained from Cell Signaling Technology (Beverley, MA, USA) while the anti-actin antibody was purchased from Santa Cruz Biotechnology (Santa Cruz, CA, USA).
(§3) The HSC-2 cells were cultured for 24 h and, then, treated with 0.5 µM of 3b or 3c for 24 h. The cells were scraped and collected in lysis buffer (purchased from Cell Signaling Technology), which contained 1 mM of phenylmethanesulfonyl fluoride and one tablet of protease inhibitor cocktail (Complete, EDTA-free; Roche Diagnostics, Mannheim, Germany). The proteins were subjected to 8% SDS-polyacrylamide gel electrophoresis and, then, transferred to a polyvinylidene difluoride membrane saturated with 5% nonfat dry milk. The membranes were incubated with rabbit monoclonal anti-cleaved PARP (Cell Signaling Technology, Beverly, MA, USA; #9541, 1:1000), or beta-actin antibody (Sigma-Aldrich, St Louis, MO, USA; A5441, 1:10,000) for 1 h at room temperature. The membranes were washed with Tris-buffered saline containing 0.1% Tween 80. And, the secondary antibodies were horseradish peroxidase-conjugated goat antimouse or antirabbit, which reacted with the chemoluminescent substrate system and were exposed to X-ray films.

HSC-2 cells = test: Cell cycle analysis of HSC-2 cells; format: cell-based, human; settings: 0.5 µM, 24 h
Experimental: The effect of 3b (0.5 µM) and 3c (0.5 µM) on the phase distribution of HSC-2 cells after 24 h of incubation was determined using the protocol of a manufacturer (BD Pharmingen, BD BioSciences, San Jose, CA, USA). In brief, treated and untreated cells were suspended at a density of ~1 × 10^6 cells/mL in cooled phosphate-buffered saline (PBS) without calcium and magnesium ions and fixed with 70% ethanol overnight at −20 °C. The cells were washed with cooled PBS and re-suspended in a propidium iodide/RNase staining buffer in the dark at room temperature for 0.25 h. Both acquisition and analysis were performed using EPICS ALTRA (Beckman Coulter, Brea, CA, USA) and EXPO 32 software.

bim, bax, puma, and bak = test: Pro-apoptotic proteins bim, bax, puma, bak in HSC-2 cells; format: cell-based, human; settings: 24 h, data not shown
Experimental: as §2, §3

HCT116 cells [10] = test: Mitochondrial membrane potential determination in HCT116 cells; format: cell-based, human; settings: 48 h, tetramethylrhodamine ethyl ester
Experimental: The determination of the IC50 values of 3b, 3c, and 5-FU on the mitochondrial membrane potential in HCT 116 cells was undertaken using a literature procedure. In brief, the cells were incubated at 37 °C in an atmosphere of 5% carbon dioxide for 24 h. The compounds were dissolved in DMSO, added to the cells, and incubated for 48 h. Then, […], and 2,4-dinitrophenol (DNP) were added to the cells, which were incubated for 0.5 h. After the addition of tetramethylrhodamine ethyl ester, the fluorescence of the cells was determined using a plate reader.

HCT116 cells [11] = test: Reactive oxygen species determination in HCT116 cells; format: cell-based, human; settings: for Generation of reactive oxygen species (ROS): 48 h, dichlorofluorescein fluorescence
Experimental: The determination of the effects of 3b, 3c, and 5-FU on the generation of reactive oxygen species in HCT 116 cells was accomplished using a literature procedure. In brief, the cells were incubated at 37 °C in an atmosphere of 5% carbon dioxide for 24 h. Subsequently, solutions of the compounds in DMSO were added to the cells, which were incubated for 48 h. After 2′,7′-dichlorofluorescein was added to the cells, incubation continued for another 0.5 h and the fluorescence of the cells was measured spectrophotometrically (excitation wavelength 485 nm; emission wavelength, 530 nm).

[12] = test system: human gingival fibroblasts (HGF); test: Cytotoxicity, MTT method, HGF non-malignant cells; format: cell-based; settings: 48 h, mean ± SD
Experimental: as §1

human pulp cells (HPC) = test: Cytotoxicity, MTT method, HPC non-malignant cells; format: cell-based; settings: 48 h, mean ± SD
Experimental: as §1

[13] = test system: human periodontal ligament fibroblasts (HPLF); test: Cytotoxicity, MTT method, HPLF non-malignant cells; format: cell-based; settings: 48 h, mean ± SD
Experimental: as §1

[14] = test system: human normal cells HGF, HPC, HPLF; test: Cytotoxicity, average over the three human normal cells; format: cell-based; settings: average of HGF, read-out: AVE CC50, human normal cells
Experimental: as §1

[15] = average of HL-60, HSC-2, HSC-3, HSC-4

Structure (SMILES) | CC50 ([1]; HL-60, 48 h, MTT, mean ± SD) [µM] | SI (selectivity index) HL-60 [1] | CC50 ([2]; HSC-2, 48 h, MTT, mean ± SD) [µM] | SI (selectivity index) HSC-2 [2] | CC50 ([3]; HSC-3, 48 h, MTT, mean ± SD) [µM] | SI (selectivity index) HSC-3 [3] | CC50 ([4]; HSC-4, 48 h, MTT, mean ± SD) [µM] | SI (selectivity index) HSC-4 [4] | CC50 at 48 h [5] [µM] | CC50 at 48 h [6] [µM] | CC50 at 48 h [7] [µM] | CC50 [8, 15] [µM] | AVE SI [8] | CC50 at 48 h [9] [µM] | Induction of caspases-3 and -7 (caspases-3 and -7) | Cleavage of PARP1 (PARP1) | Cell cycle effect (HSC-2 cells) | Effect on pro-apoptotic proteins bim, bax, puma, bak (bim, bax, puma, and bak) | Effect on mitochondrial membrane potential (MMP) (HCT116 cells [10]) | Generation of reactive oxygen species (ROS) (HCT116 cells [11]) | further results
O=C1/C(=C/c2ccc(F)cc2)CN(C(=O)CC(=O)N2C/C(=C\c3ccc(F)cc3)C(=O)/C(=C/c3ccc(F)cc3)C2)C/C1=C\c1ccc(F)cc1 [Compound 3b] | 0.028 ± 0.001 | 151 | 0.041 ± 0.004 | 103 | 0.046 ± 0.011 | 92.0 | 0.023 ± 0.003 | 184 | 3.8 ± 0.71 | 3.2 ± 1.1 | 5.7 ± 0.67 | 0.04 | 133 | 4.23 | induced caspases-3 and -7 | causing the cleavage of PARP; also recorded: leads to the cleavage of PARP1 | G2M arrest in the cell cycle; also recorded: causes a G2/M arrest | no changes in the concentrations of these proteins were observed | huge effect on lowering the MMP | cause an increase in the ROS concentrations | CC50 values in all four bioassays (range in words) ([8]; HL-60, HSC-2, HSC-3, HSC-4): double-digit nanomolar range; ROS generation, potency relative to 3c (HCT116 cells [11]): approximately twice the potency of 3c
O=C1/C(=C/c2ccc(Cl)cc2)CN(C(=O)CC(=O)N2C/C(=C\c3ccc(Cl)cc3)C(=O)/C(=C/c3ccc(Cl)cc3)C2)C/C1=C\c1ccc(Cl)cc1 [Compound 3c] | 5 ± 0.76 | 8.26 | 5.5 ± 0.65 | 7.51 | 13 ± 2.2 | 3.18 | 5.5 ± 0.96 | 7.51 | 41 ± 2.5 | 38 ± 8.7 | 45 ± 11 | 7.25 | 6.62 | 41.3 | does not exert these effects | does not exert these effects | does not exert these effects | no changes in the concentrations of these proteins were observed | no effect at the concentrations utilized | cause an increase in the ROS concentrations | –
N[C@@H](Cc1ccc(N(CCCl)CCCl)cc1)C(=O)O [Melphalan, reference compound] | – | 75.6 | – | 5.61 | – | 1.46 | – | 1.46 | – | – | – | – | 21.0 | > 50 | – | – | – | – | – | – | CC50 ([1]; HL-60, 48 h): 0.89 ± 0.17 µM; CC50 ([2]; HSC-2, 48 h): 12 ± 2.7 µM; CC50 ([3]; HSC-3, 48 h): 46 ± 31 µM; CC50 ([4]; HSC-4, 48 h): 46 ± 6 µM; CC50 [12]: 73 ± 15 µM; CC50 (human pulp cells (HPC)): 37 ± 7.3 µM; CC50 [13]: 92 ± 7.8 µM; CC50 [8]: 26.2 µM; CC50 [14]: 67.3 µM
